Experimental data reported in PMC9967645, “OAT3 Participates in Drug–Drug Interaction between Bentysrepinine and Entecavir through Interactions with M8—A Metabolite of Bentysrepinine—In Rats and Humans In Vitro” (Molecules, 2023).
Several values for one entry are separate records, joined by “and”; a condition that tells them apart may be missing. Equal entries are not always repeated. Where two headings read alike, the source gives them in different places.

Assays:
Format in all cases: in vivo, Sprague–Dawley (SD) rats
[1] = Renal excretion study in rats (cumulative urinary excretion, renal clearance); settings: for CL renal: Sprague-Dawley, rat, urine, iv, read-out: CLR (renal clearance) (converted)
Experimental: To investigate the effects of PRO on the renal excretion of Y101 and its metabolites, rats received an intravenous dose of Y101 (25 mg/kg) or Y101 + PRO (25 mg/kg for Y101 and 100 mg/kg for PRO) via the caudal vein. In order to verify the DDI between Y101 and ETV in renal excretion, rats received an intravenous dose of Y101 (25 mg/kg) and/or ETV (0.06 mg/kg) by caudal vein.
[…] Subsequently, urine samples were stored at −70 °C until analysis. The cumulative urinary excretion and renal clearance (CLR) were calculated as previously described.
(§1) Biological samples were prepared as previously described.

[2] = Pharmacokinetic DDI study in rats, oral Y101 and/or ETV; settings: Sprague-Dawley, rat, plasma, n = 4
Experimental: (§2) Additionally, DDI between Y101 and ETV was investigated by monitoring time-course plasma Y101 in rats with surgery as described above. Animals were randomly placed into three groups (n = 4): (1) Y101 alone (25 mg/kg for intravenous treatment and 60 mg/kg for oral administration); (2) ETV (0.06 mg/kg); and (3) Y101 (25 mg/kg for intravenous treatment and 60 mg/kg for oral administration) + ETV (0.06 mg/kg). ETV was dissolved in saline at concentration of 12 µg/mL. Rats received an oral or intravenous dose of Y101 and/or ETV at volume of 5 mL/kg. The doses used in in vivo pharmacokinetic studies were selected in accordance with therapeutic doses of Y101 and ETV commonly used clinically and in previous studies.
(§3) Following administration, serial blood samples were collected through jugular vein pre-dose (0 h) and post-dose at 0.033, 0.083, 0.25, 0.5, 1, 1.5, 2, 3, 4, 6, 9, 12, 24 and 30 h in heparinized Eppendorf tubes. The resulting samples were centrifuged at 13,800× g at 4 °C for 5 min to obtain plasma. All plasma samples were stored at −70 °C until analysis.
as §1
(§4) Non-compartmental analysis with Phenix WinNonlin (version 8.1; Pharsight, Certara Corp, Princeton, NJ) was used to calculate the main pharmacokinetic parameters of ETV, Y101, M8 and M9 for individual rats. The observed values were reported for maximum concentration (Cmax) and time to reach maximum concentration (Tmax), while the area under the plasma concentration–time curve (AUC) was calculated via the default trapezoidal-up, log-trapezoidal-down approach.

[3] = Pharmacokinetic DDI study in rats, intravenous Y101 and/or ETV; settings: Sprague-Dawley, rat, plasma; for AUC(0-inf) / AUC(0-t) / C0 / Vd / half-life / Cmax / Tmax: n = 4; for clearance: n = 4, read-out: CLp (plasma clearance) (converted)
Experimental: as §2, §3, §1, §4

[4] = Pharmacokinetic study in rats, intravenous Y101 with or without PRO; settings: for Tmax / half-life / AUC(0-inf) / AUC(0-t) / Cmax / Vd / clearance / C0: male, Sprague-Dawley, rat, plasma, iv, 25 mg/kg; for Tmax / half-life / AUC(0-inf) / AUC(0-t) / Cmax / Vd / C0: n = 3; for clearance: n = 3, read-out: CLp (plasma clearance) (converted)
Experimental: The effect of PRO on the pharmacokinetics of Y101 was studied in rats. Male rats surgically prepared with indwelling jugular cannula were randomly divided into two groups (n = 3): (1) Y101 alone (25 mg/kg) as a control and (2) Y101 + PRO (25 mg/kg for Y101 and 100 mg/kg for PRO) as an experimental group. The intravenous dose of Y101 was prepared as previously described. Both Y101 and PRO were injected by caudal vein to rats at volume of 5 mL/kg.
as §3, §1, §4

[5] = i.v. Y101 25 mg/kg + ETV 0.06 mg/kg
[6] = oral Y101 60 mg/kg + ETV 0.06 mg/kg
[7] = 25 mg/kg, i.v. Y101 25 mg/kg + PRO 100 mg/kg
[8] = 25 mg/kg, i.v. Y101 25 mg/kg alone (Table 1, control of PRO study)
[9] = 25 mg/kg, i.v. Y101 25 mg/kg alone (Table 2, control of ETV study)
[10] = i.v. Y101 25 mg/kg + ETV 0.06 mg/kg, at 30 h post-dose
[11] = i.v. Y101 25 mg/kg + PRO 100 mg/kg, 0 to 48 h
[12] = i.v. Y101 25 mg/kg + PRO 100 mg/kg vs Y101 alone
[13] = i.v. Y101 25 mg/kg + PRO 100 mg/kg

SMILES: C=C1[C@H](CO)[C@@H](O)C[C@@H]1n1cnc2c(=O)[nH]c(N)nc21 [ETV, entecavir]
- CL renal ([1]; 0.06 mg/kg, i.v. ETV 0.06 mg/kg alone): 36.2 mL/min/kg
- CL renal [1, 5]: 33.3 mL/min/kg
- cumulative excretion in urine ([1]; i.v. ETV 0.06 mg/kg alone, at 30 h post-dose): 33.4 ± 1.55%
- AUC(0-inf) ([2]; oral ETV 0.06 mg/kg alone): 8.49 ng·h/mL
- AUC(0-t) ([2]; oral ETV 0.06 mg/kg alone): 8.15 ng·h/mL
- Cmax ([2]; oral ETV 0.06 mg/kg alone): 5.54 ng/mL
- AUC(0-inf) [2, 6]: 7.41 ng·h/mL
- AUC(0-t) [2, 6]: 6.76 ng·h/mL
- Cmax [2, 6]: 2.94 ng/mL
- Tmax ([2]; oral ETV 0.06 mg/kg alone): 0.5 h
- half-life ([2]; oral ETV 0.06 mg/kg alone): 1.1 h
- Tmax [2, 6]: 0.875 h
- half-life [2, 6]: 1.45 h
- AUC(0-inf) ([3]; i.v. ETV 0.06 mg/kg alone): 9.79 ng·h/mL
- AUC(0-t) ([3]; i.v. ETV 0.06 mg/kg alone): 9.21 ng·h/mL
- C0 ([3]; i.v. ETV 0.06 mg/kg alone): 26.4 ng/mL
- AUC(0-inf) [3, 5]: 6.76 ng·h/mL
- AUC(0-t) [3, 5]: 6.31 ng·h/mL
- C0 [3, 5]: 19.1 ng/mL
- Vd ([3]; i.v. ETV 0.06 mg/kg alone): 11.7 L/kg
- half-life ([3]; i.v. ETV 0.06 mg/kg alone): 1.28 h
- clearance ([3]; i.v. ETV 0.06 mg/kg alone): 107 mL/min/kg
- Vd [3, 5]: 16.4 L/kg
- half-life [3, 5]: 1.28 h
- clearance [3, 5]: 152 mL/min/kg

SMILES: CN(C)CCOc1ccc(CC(NC(=O)c2ccccc2)C(=O)O)cc1 (stereo not drawn) [M8]
- CL renal [1, 7]: 82.7 mL/min/kg
- CL renal [1, 8]: 100 mL/min/kg
- CL renal [1, 9]: 115 mL/min/kg
- CL renal [1, 5]: 106 mL/min/kg
- cumulative excretion in the urine [1, 10]: 59.7 ± 5.78 % of the dose
- cumulative urinary excretion [1, 11]: 56.3 ± 3.00%
- cumulative urinary excretion ([1]; i.v. Y101 25 mg/kg alone, at 48 h post-dose): 68.1 ± 6.97 % of the dose and 68.1 % of the dose
- AUC(0-inf) [2, 6]: 10400 ng·h/mL
- AUC(0-t) [2, 6]: 10300 ng·h/mL
- Cmax [2, 6]: 1980 ng/mL
- AUC(0-inf) ([2]; oral Y101 60 mg/kg alone): 10200 ng·h/mL
- AUC(0-t) ([2]; oral Y101 60 mg/kg alone): 10100 ng·h/mL
- Cmax ([2]; oral Y101 60 mg/kg alone): 2030 ng/mL
- Tmax [2, 6]: 1.5 h
- half-life [2, 6]: 3.64 h
- Tmax ([2]; oral Y101 60 mg/kg alone): 2.25 h
- half-life ([2]; oral Y101 60 mg/kg alone): 3.44 h
- elevation in AUC value on co-administration of PRO [4, 12]: 163%
- increase in Cmax value on co-administration of PRO [4, 12]: 2.6 fold
- Tmax [4, 13]: 0.5 h
- half-life [4, 13]: 3.45 h
- AUC(0-inf) [4, 13]: 21900 ng·h/mL
- AUC(0-t) [4, 13]: 21900 ng·h/mL
- Cmax [4, 13]: 10100 ng/mL
- AUC(0-inf) ([4]; i.v. Y101 25 mg/kg alone): 8360 ng·h/mL
- AUC(0-t) ([4]; i.v. Y101 25 mg/kg alone): 8300 ng·h/mL
- Cmax ([4]; i.v. Y101 25 mg/kg alone): 3890 ng/mL
- Tmax ([4]; i.v. Y101 25 mg/kg alone): 0.667 h
- half-life ([4]; i.v. Y101 25 mg/kg alone): 4.07 h
- AUC(0-inf) [3, 5]: 6150 ng·h/mL
- AUC(0-t) [3, 5]: 6100 ng·h/mL
- Cmax [3, 5]: 2520 ng/mL
- AUC(0-inf) ([3]; i.v. Y101 25 mg/kg alone): 5860 ng·h/mL
- AUC(0-t) ([3]; i.v. Y101 25 mg/kg alone): 5830 ng·h/mL
- Cmax ([3]; i.v. Y101 25 mg/kg alone): 2660 ng/mL
- Tmax [3, 5]: 0.438 h
- half-life [3, 5]: 2.65 h
- Tmax ([3]; i.v. Y101 25 mg/kg alone): 0.5 h
- half-life ([3]; i.v. Y101 25 mg/kg alone): 1.93 h

SMILES: CN(C)CCOc1ccc(C[C@H](NC(=O)c2ccccc2)C(=O)N[C@H](CO)Cc2ccccc2)cc1.Cl [Y101, N-[N-benzoyl-O-(2-dimethylaminoethyl)-l-tyrosyl]-l-phenylalaninol hydrochloride]
- CL renal [1, 7]: 5.28 mL/min/kg
- CL renal [1, 8]: 6.1 mL/min/kg
- CL renal [1, 9]: 7.18 mL/min/kg
- CL renal [1, 5]: 7.93 mL/min/kg
- cumulative excretion in the urine [1, 10]: 4.48 ± 0.742 % of the dose
- cumulative urinary excretion [1, 11]: 3.59 ± 0.526%
- cumulative urinary excretion ([1]; i.v. Y101 25 mg/kg alone, at 48 h post-dose, 25 mg/kg): 4.16 ± 0.843 % of the dose and 4.16 % of the dose
- AUC(0-inf) [2, 6]: 1680 ng·h/mL
- AUC(0-t) [2, 6]: 1620 ng·h/mL
- Cmax [2, 6]: 843 ng/mL
- AUC(0-inf) ([2]; oral Y101 60 mg/kg alone): 1620 ng·h/mL
- AUC(0-t) ([2]; oral Y101 60 mg/kg alone): 1570 ng·h/mL
- Cmax ([2]; oral Y101 60 mg/kg alone): 668 ng/mL
- Tmax [2, 6]: 0.313 h
- half-life [2, 6]: 1.11 h
- Tmax ([2]; oral Y101 60 mg/kg alone): 0.25 h
- half-life ([2]; oral Y101 60 mg/kg alone): 0.998 h
- Vd [4, 13]: 12.5 L/kg
- half-life [4, 13]: 0.706 h
- clearance [4, 13]: 207 mL/min/kg
- AUC(0-inf) [4, 13]: 2030 ng·h/mL
- AUC(0-t) [4, 13]: 2020 ng·h/mL
- C0 [4, 13]: 15800 ng/mL
- AUC(0-inf) ([4]; i.v. Y101 25 mg/kg alone): 2860 ng·h/mL
- AUC(0-t) ([4]; i.v. Y101 25 mg/kg alone): 2840 ng·h/mL
- C0 ([4]; i.v. Y101 25 mg/kg alone): 16000 ng/mL
- Vd ([4]; i.v. Y101 25 mg/kg alone): 10.2 L/kg
- half-life ([4]; i.v. Y101 25 mg/kg alone): 0.798 h
- clearance ([4]; i.v. Y101 25 mg/kg alone): 149 mL/min/kg
- AUC(0-inf) [3, 5]: 1690 ng·h/mL
- AUC(0-t) [3, 5]: 1670 ng·h/mL
- C0 [3, 5]: 6280 ng/mL
- AUC(0-inf) ([3]; i.v. Y101 25 mg/kg alone): 2370 ng·h/mL
- AUC(0-t) ([3]; i.v. Y101 25 mg/kg alone): 2350 ng·h/mL
- C0 ([3]; i.v. Y101 25 mg/kg alone): 10600 ng/mL
- Vd [3, 5]: 15.5 L/kg
- half-life [3, 5]: 0.66 h
- clearance [3, 5]: 258 mL/min/kg
- Vd ([3]; i.v. Y101 25 mg/kg alone): 10.6 L/kg
- half-life ([3]; i.v. Y101 25 mg/kg alone): 0.682 h
- clearance ([3]; i.v. Y101 25 mg/kg alone): 178 mL/min/kg
